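A five-concentration, 48-hour dose response in 96-well plates underlies each endpoint, interpolated linearly between surrounding concentrations. TGI denotes the concentration required for complete inhibition of growth.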
Experiments:
Test in all cases: NCI anticancer screen, dose series, 48 h
MDA-N = test system: MDA-N
NCI-H522 lung = test system: NCI-H522 lung
NCI-H23 lung = test system: NCI-H23 lung
COLO 205 colon = test system: COLO 205 colon
NCI-H460 lung = test system: NCI-H460 lung
SW-620 colon = test system: SW-620 colon
OVCAR-5 ovarian = test system: OVCAR-5 ovarian
K-562 leukemia = test system: K-562 leukemia
RPMI-8226 leukemia = test system: RPMI-8226 leukemia
HS 578T breast = test system: HS 578T breast

Structure (SMILES)	TGI (MDA-N) [µM]	TGI (NCI-H522 lung) [µM]	TGI (NCI-H23 lung) [µM]	TGI (COLO 205 colon) [µM]	TGI (NCI-H460 lung) [µM]	TGI (SW-620 colon) [µM]	TGI (OVCAR-5 ovarian) [µM]	TGI (K-562 leukemia) [µM]	TGI (RPMI-8226 leukemia) [µM]	TGI (HS 578T breast) [µM]
CN(C)CCC(C#N)(c1ccccc1)c1ccccc1	> 100	> 100	> 100	> 100	> 100	> 100	> 100	22.6	80.5	> 100
Cc1c(CNc2ccc(Cl)c(Cl)c2Cl)cnc2nc(N)nc(N)c12	> 32	> 45.2	> 49.3	33.8	> 48.9	> 70.1	> 50.4	5.14	49	65.6
COC1=C(OC)C(=O)c2cc(C)c(=O)c(C)cc2C1=O	6.84	32.2	34.2	34.7	48.5	20.7	47.6	> 24	40.7	63.8
COc1cccc(O)c1-c1cc(=O)c2c(O)c(OC)c(OC)c(OC)c2o1	49.2	87.9	85.5	39.1	52.1	> 100	> 100	> 100	58.4	> 100
CN1CN(c2ccccc2)C2(CCN(CCCN(C)c3ccc(F)cc3)CC2)C1=O	30.7	27.4	44.1	24.1	32.9	36.2	41.8	30.1	80.4	42.8
CC(=O)OCC1OC(NC(=S)Nn2c(-c3ccccc3)nc3ccccc3c2=O)C(OC(C)=O)C(OC(C)=O)C1OC(C)=O (stereo not given)	> 100	> 100	> 100	> 100	> 100	> 100	> 100	> 100	> 100	> 100
C(#C[C@@]12CCC[C@@H]1NCO2)c1ccc2c(c1)OCO2	> 100	> 100	> 100	31.5	> 100	> 100	> 100	60.2	> 100	> 100
Cc1nnc(NS(=O)(=O)c2ccc(N=Nc3c(O)c(C(=O)O)cc4ccccc34)cc2)s1	> 100	> 100	> 100	> 100	> 100	> 100	> 100	> 100	> 100	> 100
NC(C(=O)O)C(O)c1cnc[nH]1 (stereo not given)	> 100	> 100	> 100	> 100	> 100	> 100	> 100	> 100	> 100	> 100
COc1cc(N(CCC#N)CCC#N)ccc1/C(N=Nc1cccc([N+](=O)[O-])c1)=N\NC(=O)c1ccc(C)cc1	> 100	> 100	> 100	> 100	70.5	> 100	> 100	> 100	> 100	> 100
COc1cc(OC)cc(Oc2nc3ccc(C(F)(F)F)cc3nc2-c2ccccc2)c1	> 100	> 100	> 100	> 100	> 100	> 100	> 100	> 100	> 100	> 100
CC(=O)C1=C(C)N2C(=NC3=C(CCc4ccccc43)C2c2ccc(Cl)cc2)S1 (stereo not given)	> 100	82.7	> 100	> 100	> 100	> 100	> 100	> 56.2	12.8	> 100
O=C1C(CN2CCCC2)CCC1CN1CCCC1 (stereo not given)	29.9	3.52	38.2	17.5	> 100	11	> 55.9	> 33.4	34.9	55.7
COc1ccc(Cc2nc3cc(C(F)(F)F)ccc3n2C[C@@H]2CCCN3CCCCC23)cc1 (stereo not given in full)	13.2	21.8	30.9	18.9	31.1	> 62.1	27.8	> 64.8	94.8	65.9
O=C(c1ccccc1)N1N=C(C(F)(F)F)CC1(O)C(F)(F)F (stereo not given)	> 100	> 100	> 100	> 100	> 100	> 100	> 100	> 100	> 100	> 100
CC(C)CCNC(=O)c1ccc(CNC(=O)/C=C/c2ccc3c(c2)-c2ccccc2C3)cc1	> 100	> 100	> 100	> 100	> 100	> 100	> 100	> 100	> 100	> 100
COC(=O)[C@]1(CCC(C)=O)C(=O)C=CN([C@H](C)c2ccccc2)[C@@H]1Cc1ccc(OC)c(OCc2ccccc2)c1I	41.3	41.6	49.6	47.7	30.7	> 100	63.8	> 100	51.7	79.4

— PubChem BioAssay (NCI)
